This is an account of results in ChEMBL document CHEMBL3864139, “Phenylindenone isomers as divergent modulators of p38α MAP kinase” (Bioorg Med Chem Lett, 2016).

The source made the active and inactive calls. The rule behind the calls is not given here.

In assay [1] the target is T1, Mitogen-activated protein kinase 14 (Homo sapiens, UniProt Q16539). Nature of the assay: Inhibition of human recombinant full length GST-tagged MAPK14 phosphorylation expressed in Escherichia coli in presence of 100 uM of ATP by direct Z-LITE assay.
T1 sequence (Q16539 whole entry): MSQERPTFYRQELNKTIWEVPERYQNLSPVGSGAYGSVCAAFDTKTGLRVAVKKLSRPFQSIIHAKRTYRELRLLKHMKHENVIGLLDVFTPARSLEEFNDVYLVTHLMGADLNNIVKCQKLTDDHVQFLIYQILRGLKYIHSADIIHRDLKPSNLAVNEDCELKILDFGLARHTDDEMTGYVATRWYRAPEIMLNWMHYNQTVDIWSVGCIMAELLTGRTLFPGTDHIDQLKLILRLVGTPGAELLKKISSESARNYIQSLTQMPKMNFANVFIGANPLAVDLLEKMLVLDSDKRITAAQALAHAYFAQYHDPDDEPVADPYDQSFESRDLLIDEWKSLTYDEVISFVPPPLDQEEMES
Assay [2] deals with T1, Mitogen-activated protein kinase 14. Nature of the assay: Inhibition of human recombinant full length GST-tagged MAPK14 phosphorylation expressed in Escherichia coli in presence of 500 uM of ATP by direct Z-LITE assay.
Assay [3] has the same target. Briefly: Activation of human recombinant full length GST-tagged MAPK14 expressed in Escherichia coli assessed as increase in MAPK14 phosphorylation at 10 uM in presence of 500 uM of ATP by direct Z-LITE assay relative to control.
The target is the same in assay [4]. Nature of the assay: Activation of human recombinant full length GST-tagged MAPK14 expressed in Escherichia coli assessed as increase in MAPK14 phosphorylation at 10 to 10000 nM in presence of 500 uM of ATP by direct Z-LITE assay.

For the molecule `O=C1C(c2ccc(F)cc2)=C(c2ccncc2)c2ccccc21`, the IC50 in assay [1] amounted to 899 nM; in assay [2], 1350 nM.

In the case of `O=C1C(c2ccncc2)=C(c2ccc(F)cc2)c2ccccc21`, the Activity in assay [3] lay within 40 to 50%. In assay [4], the result was Active.

The term IC50 denotes the concentration that inhibits the measured activity by half.
